Read-outs that look alike come from different tables or passages of the source.
Columns and labels:
[1] = molecular target: PHD2 catalytic domain (residues 181-426) (Homo sapiens, UniProt Q9GZT9); test: NMR KD measurement (2OG displacement or water relaxation); assay type: binding; parameters: The catalytic domain of human PHD2 (residues 181-426) was used in all; made in house; settings: water relaxation or 2OG displacement
Description: Water-Ligand Observed Gradient SpectroscopY (wLOGSY) experiments were conducted […]
Solvent excitation was achieved using a 16 ms 180 degree selective rectangular shape pulse with 100% truncation level and 1000 points (Squa100.1000) set at the H2O frequency. Water suppression was achieved by a 2 ms Sinc (Sinc1.1000) pulse at the H2O frequency.
2OG displacement experiments were monitored by CPMG-edited 1H NMR using a Bruker […]
supplemented with 60 µM Zn(II) and increasing concentrations of the inhibitors from a […]
(90°x−[τ−180°y−τ−90°y−τ−180°y−τ]n−acq), was applied. Typical experimental parameters were […]
suppression was achieved by presaturation.
For 13C-CODD and […] displacement experiments, 1D Clean In-Phase (CLIP) HSQC with selective 13C-inversion displacement experiments were conducted using a Bruker AV700 instrument. 3 mm MATCH NMR tubes were used (Cortecnet). All experiments were […]
prolyl-ring. 7 The CLIP-HSQC sequence was used for 1D HSQC experiments (without 13C decoupling).8 Relaxation delay was 2s. The 1JCH was set to 160 Hz. A 6.8 ms Q3.1000 180 degree pulse was used and selective irradiation was applied at the selected chemical shift. […]
Samples were prepared by mixing reaction mixture (1 μL) with α-cyano-4-hydrocinnamic acid (CHCA) solution (water:acetonitrile 1:1) (1 μL). Dose-response was assessed in 8-point […]

JARID1C (KDM5C) = JARID1C (KDM5C) (Homo sapiens, UniProt P41229); test: AlphaScreen histone demethylase assay; assay type: biochemical
JARID1C (KDM5C), sequence (P41229 whole entry): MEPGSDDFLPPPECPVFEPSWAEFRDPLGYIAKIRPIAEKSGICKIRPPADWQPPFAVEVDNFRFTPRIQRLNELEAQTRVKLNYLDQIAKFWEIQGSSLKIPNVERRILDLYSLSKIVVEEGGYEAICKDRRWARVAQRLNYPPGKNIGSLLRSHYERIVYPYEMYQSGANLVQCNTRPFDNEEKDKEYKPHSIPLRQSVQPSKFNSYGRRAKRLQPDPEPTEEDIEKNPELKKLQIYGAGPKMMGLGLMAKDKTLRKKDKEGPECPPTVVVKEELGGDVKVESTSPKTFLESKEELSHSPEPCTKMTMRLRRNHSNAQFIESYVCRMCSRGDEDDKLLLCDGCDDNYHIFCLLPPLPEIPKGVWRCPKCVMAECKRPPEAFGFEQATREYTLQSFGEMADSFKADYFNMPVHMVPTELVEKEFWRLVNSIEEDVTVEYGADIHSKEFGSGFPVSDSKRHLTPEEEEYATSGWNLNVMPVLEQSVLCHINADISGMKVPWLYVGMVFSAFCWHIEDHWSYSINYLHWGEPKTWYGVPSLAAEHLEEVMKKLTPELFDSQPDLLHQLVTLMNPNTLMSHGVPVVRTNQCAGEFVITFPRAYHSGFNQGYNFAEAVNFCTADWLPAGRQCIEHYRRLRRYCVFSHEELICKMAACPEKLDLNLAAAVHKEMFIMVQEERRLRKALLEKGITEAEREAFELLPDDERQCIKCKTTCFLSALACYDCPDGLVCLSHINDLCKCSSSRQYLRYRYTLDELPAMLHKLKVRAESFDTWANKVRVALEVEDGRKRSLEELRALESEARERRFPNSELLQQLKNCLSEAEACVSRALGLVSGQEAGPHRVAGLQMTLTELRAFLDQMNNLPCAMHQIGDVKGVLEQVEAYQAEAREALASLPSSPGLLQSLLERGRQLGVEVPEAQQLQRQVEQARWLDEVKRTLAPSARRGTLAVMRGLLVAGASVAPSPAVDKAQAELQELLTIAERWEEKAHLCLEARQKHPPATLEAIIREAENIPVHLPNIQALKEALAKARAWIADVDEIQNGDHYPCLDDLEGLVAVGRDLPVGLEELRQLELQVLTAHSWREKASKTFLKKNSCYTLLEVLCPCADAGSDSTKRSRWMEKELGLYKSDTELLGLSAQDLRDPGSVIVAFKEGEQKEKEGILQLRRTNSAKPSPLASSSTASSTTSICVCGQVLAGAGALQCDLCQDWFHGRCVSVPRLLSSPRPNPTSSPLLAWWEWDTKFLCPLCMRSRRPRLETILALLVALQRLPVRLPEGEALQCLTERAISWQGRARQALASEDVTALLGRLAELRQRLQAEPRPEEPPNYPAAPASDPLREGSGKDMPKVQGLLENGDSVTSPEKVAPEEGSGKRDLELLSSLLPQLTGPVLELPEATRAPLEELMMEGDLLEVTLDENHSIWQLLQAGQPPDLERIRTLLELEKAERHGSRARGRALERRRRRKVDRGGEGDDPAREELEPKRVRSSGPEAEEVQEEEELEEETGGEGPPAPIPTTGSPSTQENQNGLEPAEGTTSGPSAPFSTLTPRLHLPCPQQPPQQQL

[2] = test system: HIF-1α in HeLa and U2OS cells, HIF-1α and HIF-2α in Hep3b cells; test: Immunoblotting of HIF-α stabilization, dose titration; assay type: cell-based, human; settings: 6 hours treatment, all of the cells tested
Description: The cellular HIF-α stabilization was further studied using immunoblotting. […]. page 15: […]
freshly every day as a 400 mM stock solution in 20 mM HCl, this was then diluted to 1 mM in deionized water. L-ascorbic acid (50 mM) and 2OG stock solutions (10 mM) were prepared freshly every day in deionized water as for the PHD2 assays14 . The synthetic consensus ankyrin […]
peptide ([…]-CONH2) was synthesized by GL Biochem
(Shanghai) Ltd and dissolved to 1 mM in deionized water.
20 μl FIH (100 nM) in the assay buffer (50 mM Tris.Cl pH 7.8, 50 mM NaCl) was pre-incubated for 15 minutes in the presence of the inhibitors and the enzyme reaction initiated by addition of 20 μl substrate (200 μM L-ascorbic acid, 20 μM Fe2+, 10 μM synthetic ankyrin peptide 14 and 20 μM 2OG). After 15 minutes the reaction was quenched by addition of 4 μl 10% formic acid and the reaction transferred to a RapidFire RF360 high throughput sampling robot. Samples were aspirated under vacuum onto a C4 Solid Phase Extraction (SPE) cartridge.
After an aqueous washing step (0.1% formic acid in water), to remove non-volatile buffer components from the C4 SPE, peptide was eluted in an organic washing step (85% acetonitrile in water, 0.1% formic acid) and injected into an Agilent 6530 Q-TOF mass spectrometer. Ion chromatogram data was extracted for the non-hydroxylated peptide substrate and the hydroxylated peptide product; the peak area data for extracted ion chromatograms were integrated using RapidFire Integrator software. % conversion of substrate to product was calculated in Microsoft excel and IC50 curves generated using Graphpad Prism.
Cell Culture and Immunoblotting […]
Cells were harvested in urea/SDS buffer (6.7 M urea, 10 mM Tris-Cl pH 6.8, 10% glycerol, and1% SDS) supplemented with 1mM dithiothreitol following a phosphate-buffered saline (PBS) rinse. Cell extracts were analyzed with SDS-PAGE, electroblotted to polyvinylidene difluoride (PVDF) membrane (Millipore) and probed with the corresponding primary antibody for 1 hour at room temperature or overnight at 4 °C. […]

PHD2 catalytic domain (residues 181-426), sequence (Q9GZT9 181-426): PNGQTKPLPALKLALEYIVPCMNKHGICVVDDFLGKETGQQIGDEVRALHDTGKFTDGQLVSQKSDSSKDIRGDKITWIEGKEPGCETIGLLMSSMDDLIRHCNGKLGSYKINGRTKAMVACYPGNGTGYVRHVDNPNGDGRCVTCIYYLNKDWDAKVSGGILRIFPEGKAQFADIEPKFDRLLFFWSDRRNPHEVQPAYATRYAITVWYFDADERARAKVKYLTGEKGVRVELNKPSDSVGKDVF

| SMILES | KD [1] | IC50 (JARID1C (KDM5C); read-out: IC50 JARID1C (KDM5C)) [µM] | concentration at which HIF-1α levels (and HIF-2α levels in Hep3b cells) were saturated [2] [µM] | IC50 (JARID1C (KDM5C)) [µM] |
| --- | --- | --- | --- | --- |
| CC(C)(C)OC(=O)c1ccc(-n2[nH]cc(-n3ccnn3)c2=O)nc1 [IOX4] | sub-μM range | 97 | – | – |
| O=C(O)CNC(=O)c1ncc(-c2cccc(Cl)c2)cc1O [Vadadustat] | – | > 100 | – | – |
| Cc1nc(C(=O)NCC(=O)O)c(O)c2ccc(Oc3ccccc3)cc12 [FG-4592] | – | > 100 | < 100 | – |
| O=C(O)CNC(=O)C1C(=O)N(C2CCCCC2)C(=O)N(C2CCCCC2)C1=O [GSK1278863] | – | – | < 100 | > 100 |
| O=c1c(-n2ccnn2)c[nH]n1-c1cc(N2CCOCC2)ncn1 [Molidustat] | sub-μM range | > 100 | < 100 | – |
